Assays:
HDAC1 = HDAC1 (Homo sapiens, UniProt Q13547); assay: Measurement of biochemical activities of HDAC (fluorescently-labeled acetylated lysine substrate); details: read-out: IC50 HDAC1
Method: (§1) 1. Measurement principles: the measurement of biochemical activities of compounds is determined according to the degree of the compounds inhibiting the deacylation of HDAC enzyme. After the fluorescently-labeled substrate containing acetylated lysine side chain reacts with the HDAC enzyme, the fluorogenic substrate is deacetylated. After the deacetylated fluorescently-labeled substrate is cracked by the enzyme, a fluorescent substance is released. The fluorescent substance generates emitting light of 460 nm under the excitation of light of 360 nm.
(§2) 2. Detailed steps: the substrate of HDAC is diluted to […] (the reaction concentration is […]) with a reaction buffer. HDAC enzyme is diluted to a proper concentration. The compounds to be detected in different concentrations are added. The mixture reacts for 30 min at 37. Then the developer with the same volume and twice concentration of the substrate is added into the mixture. The mixture is incubated for 15 min at room temperature. Finally, the reading is measured with a micro plate scanner. The excitation light is 360 nm, the emitting light is 460 nm, and the data is processed with Prime 4 software.

HDAC7 = target: T1, HDAC7 (Homo sapiens, UniProt Q8WUI4); assay: as above
T1 sequence (Q8WUI4 1-952): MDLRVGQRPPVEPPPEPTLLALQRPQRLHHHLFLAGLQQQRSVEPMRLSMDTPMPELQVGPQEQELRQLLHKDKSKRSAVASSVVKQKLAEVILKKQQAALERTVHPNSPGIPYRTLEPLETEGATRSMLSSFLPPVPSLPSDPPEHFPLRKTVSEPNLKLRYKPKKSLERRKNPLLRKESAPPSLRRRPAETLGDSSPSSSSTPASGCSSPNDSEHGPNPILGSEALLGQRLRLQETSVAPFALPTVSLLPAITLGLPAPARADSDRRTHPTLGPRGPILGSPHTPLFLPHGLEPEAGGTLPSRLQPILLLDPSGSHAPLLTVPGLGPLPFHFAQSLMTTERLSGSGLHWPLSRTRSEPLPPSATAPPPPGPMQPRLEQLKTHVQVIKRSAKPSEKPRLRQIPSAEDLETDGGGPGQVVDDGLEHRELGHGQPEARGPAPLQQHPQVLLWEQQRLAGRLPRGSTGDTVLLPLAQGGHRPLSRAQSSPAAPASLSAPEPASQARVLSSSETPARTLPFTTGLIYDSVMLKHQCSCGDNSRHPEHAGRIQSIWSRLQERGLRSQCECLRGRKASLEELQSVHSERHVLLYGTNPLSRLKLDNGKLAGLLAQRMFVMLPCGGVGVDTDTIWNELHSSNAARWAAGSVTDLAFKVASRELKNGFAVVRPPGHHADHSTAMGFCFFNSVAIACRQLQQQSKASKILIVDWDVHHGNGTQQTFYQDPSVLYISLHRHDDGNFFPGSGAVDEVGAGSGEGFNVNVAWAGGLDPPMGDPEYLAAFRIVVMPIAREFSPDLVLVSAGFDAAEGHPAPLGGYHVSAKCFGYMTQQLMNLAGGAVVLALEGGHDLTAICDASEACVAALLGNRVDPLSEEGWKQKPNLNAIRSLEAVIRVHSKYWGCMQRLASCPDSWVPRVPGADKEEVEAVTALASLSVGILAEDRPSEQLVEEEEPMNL
Method: as §1, §2

[1] = system: A549 (human lung cancer cells); assay: MTT cancer cell growth inhibition; assay type: cell-based; details: 72 h
From the text: (§3) 1. Experimental principles: the inhibition of cancer cell growth with compounds is detected by an MTT method. The principle of the MTT method is as follows: yellow thiazolyl blue may penetrate through cell membranes and enter into cells, succinate dehydrogenase in living cell mitochondria may reduce exogenous MTT into water-insoluble ianthinus acicular Formazan crystals which deposit in the cells, the crystals can be dissolved with dimethyl sulfoxide (DMSO), the optical density of the crystals is detected with an enzyme-linked immunometric meter at the wavelength of 490 nm/570 nm, and the number of cells can be indirectly reflected.
(§4) 2. Experimental materials: the used cancer cell lines are Hela (human cervical cancer cells), MCF-7 (human breast cancer cells), BGC-823 (human gastric cancer cells), A549 (human lung cancer cells), HT1080 (human fibrosarcoma cells), A431 (human epidermal squamous cell carcinoma cells), HUVEC (human umbilical vein endothelial cells), DU145 (human prostate cancer cells), K562 (human leukemia cells), U937 (human leukemia cells), Pac-1 (human pancreatic cancer cells), and MOLT-4 (human acute lymphoblastic leukemia cells), which are cultured with a DMEM+10% FBS culture medium or a 1640+10% FBS culture medium, respectively.
(§5) Experimental groups: 190 μl cell suspension+10 μl pharmaceuticals in different concentrations (the final concentration is 10^−5-10^−10M)
(§6) Negative control group: 190 μl cell suspension+10 μl 2% DMSO (the final concentration of DMSO is 0.1%)
(§7) a) Cells are inoculated on a 96-pore plate, with 1500 cells and 190 μl for each hole, and cultured overnight in a 5% CO2 incubator at 37.
(§8) b) 10 μl of different pharmaceuticals is added into each hole the next day, with the final concentration of the pharmaceuticals of 10^−5-10^−10M and three parallel holes, and incubated for 72 h in a 5% CO2 incubator at 37.
(§9) c) 20 μl of 5 mg/mL MTT is added into each hole, and incubated for 4 h in a 5% CO2 incubator at 37.
(§10) d) Supernatant is removed. 100 μl of DMSO is added into each hole and vibrated.
(§11) e) The reading is 570 nm. The cell survival rate is calculated.

[2] = system: BGC-823 (human gastric cancer cells); assay: MTT cancer cell growth inhibition; assay type: cell-based; details: 72 h, read-out: GI50 BGC823
From the text: as §3, §4, §5, §6, §7, §8, §9, §10, §11

[3] = system: DU145 (human prostate cancer cells); assay: MTT cancer cell growth inhibition; assay type: cell-based; details: DU-145, 72 h
From the text: as §3, §4, §5, §6, §7, §8, §9, §10, §11

[4] = system: HT1080 (human fibrosarcoma cells); assay: MTT cancer cell growth inhibition; assay type: cell-based; details: HT-1080, 72 h
From the text: as §3, §4, §5, §6, §7, §8, §9, §10, §11

[5] = system: Hela (human cervical cancer cells); assay: MTT cancer cell growth inhibition; assay type: cell-based; details: 72 h
From the text: as §3, §4, §5, §6, §7, §8, §9, §10, §11

[6] = system: MCF-7 (human breast cancer cells); assay: MTT cancer cell growth inhibition; assay type: cell-based; details: MCF7, 72 h
From the text: as §3, §4, §5, §6, §7, §8, §9, §10, §11

[7] = system: MOLT-4 (human acute lymphoblastic leukemia cells); assay: MTT cancer cell growth inhibition; assay type: cell-based; details: 72 h
From the text: as §3, §4, §5, §6, §7, §8, §9, §10, §11

PANC-1 = assay: MTT cancer cell growth inhibition; assay type: cell-based; details: Homo sapiens, 72 h
From the text: as §3, §4, §5, §6, §7, §8, §9, §10, §11

[8] = system: U937 (human leukemia cells); assay: MTT cancer cell growth inhibition; assay type: cell-based; details: U-937, 72 h
From the text: as §3, §4, §5, §6, §7, §8, §9, §10, §11

Incap = assay: MTT cancer cell growth inhibition; assay type: cell-based; details: 72 h

Sequence of HDAC1 (Q13547 whole entry, species assumed): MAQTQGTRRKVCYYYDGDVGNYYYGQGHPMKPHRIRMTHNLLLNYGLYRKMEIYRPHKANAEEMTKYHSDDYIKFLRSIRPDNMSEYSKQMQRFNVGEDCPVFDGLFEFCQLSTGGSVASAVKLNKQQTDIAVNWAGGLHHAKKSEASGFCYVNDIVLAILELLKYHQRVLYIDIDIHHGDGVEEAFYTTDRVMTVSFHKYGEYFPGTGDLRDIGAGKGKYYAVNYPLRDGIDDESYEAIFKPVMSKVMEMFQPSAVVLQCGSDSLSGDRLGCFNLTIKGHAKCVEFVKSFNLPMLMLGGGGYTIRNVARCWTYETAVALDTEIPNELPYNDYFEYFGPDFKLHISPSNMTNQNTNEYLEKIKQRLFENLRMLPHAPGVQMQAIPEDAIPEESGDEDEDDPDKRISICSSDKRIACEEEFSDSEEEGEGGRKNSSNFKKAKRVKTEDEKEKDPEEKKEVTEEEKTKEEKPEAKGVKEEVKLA

| IC50 (HDAC1) | IC50 HDAC7 (HDAC7) | GI50 [1] | GI50 [2] | GI50 [3] | GI50 [4] | GI50 [5] | GI50 [6] | GI50 [7] | GI50 (PANC-1) | GI50 [8] | GI50 (Incap) | Structure (SMILES) |
| --- | --- | --- | --- | --- | --- | --- | --- | --- | --- | --- | --- | --- |
| < 10000 nM | no activity | 15600 nM | 4600 nM | 1600 nM | 41000 nM | 73500 nM | 59600 nM | 400 nM | 680 nM | 2650 nM | 900 nM | C/C=C1\NC(=O)c2csc(n2)CNC(=O)C[C@@H](/C=C/CCSC(C)=O)OC(=O)[C@H](C(C)C)NC1=O [Compound 6-2] |
| < 10000 nM | no activity | 350 nM | 1200 nM | 2030 nM | 1060 nM | 10 nM | 2100 nM | 150 nM | 10600 nM | 21500 nM | 5400 nM | C=C1NC(=O)c2csc(n2)CNC(=O)C[C@@H](/C=C/CCSC(=O)CCCCCCC)OC(=O)[C@H](C(C)C)NC1=O [Compound 3-1] |
| < 10000 nM | no activity | 2600 nM | 1560 nM | 560 nM | 40500 nM | 26500 nM | 21400 nM | 23100 nM | 2650 nM | 1230 nM | 500 nM | C/C=C1\NC(=O)C2N=C(CNC(=O)C[C@@H](/C=C/CCSC(=O)CCCCCCC)OC(=O)[C@H](C(C)C)NC1=O)S[C@@H]2C (stereo partly drawn) [Compound 2-3] |
| < 10000 nM | no activity | 4500 nM | 2600 nM | 6400 nM | 1600 nM | 23000 nM | 52600 nM | 900 nM | 4200 nM | 18600 nM | 85200 nM | C/C=C1\NC(=O)C2C=NC(=N2)CNC(=O)C[C@@H](/C=C/CCSC(=O)CCCCCCC)OC(=O)[C@H](C(C)C)NC1=O (stereo partly drawn) [Compound 2-4] |
| < 10000 nM | no activity | 2000 nM | 1600 nM | 56500 nM | 4500 nM | 600 nM | 2300 nM | 26200 nM | 600 nM | 10200 nM | 23600 nM | C/C=C1\NC(=O)C2N=C(CNC(=O)C[C@@H](/C=C/CCSC(=O)CCCCCCC)OC(=O)[C@H](C(C)C)NC1=O)O[C@@H]2C (stereo partly drawn) [Compound 2-2] |
| < 10000 nM | no activity | 4600 nM | 2550 nM | 420 nM | 1330 nM | 500 nM | 690 nM | 2650 nM | 1250 nM | 6350 nM | 630 nM | C/C=C1\NC(=O)c2csc(n2)CNC(=O)C[C@@H](/C=C/CCSC(=O)Cc2ccccc2)OC(=O)[C@H](C(C)C)NC1=O [Compound 6-4] |
| < 100 nM | no activity | 100 nM | 200 nM | 10 nM | 100 nM | 100 nM | 1 nM | 20 nM | 1300 nM | 20 nM | 80 nM | C/C=C1\NC(=O)c2csc(n2)CNC(=O)C[C@@H](/C=C/CCSC(=O)CCCCCCC)OC(=O)[C@H](CCSC)NC1=O [Compound 1-10] |
| < 10000 nM | no activity | 360 nM | 1020 nM | 1060 nM | 1350 nM | 600 nM | 100 nM | 1060 nM | 1230 nM | 5260 nM | 1420 nM | CCCCCCCC(=O)SCC/C=C/[C@@H]1CC(=O)NCc2nc(cs2)C(=O)N[C@H](CC)C(=O)N[C@@H](C(C)C)C(=O)O1 [Compound 3-2] |
| < 10000 nM | no activity | 365 nM | 26500 nM | 695 nM | 1650 nM | 540 nM | 4120 nM | 268 nM | 1640 nM | 2660 nM | 450 nM | C/C=C1\NC(=O)c2csc(n2)CNC(=O)C[C@@H](/C=C/CCSC(=O)CCO)OC(=O)[C@H](C(C)C)NC1=O [Compound 6-5] |
| < 10000 nM | no activity | 2130 nM | 20600 nM | 5460 nM | 1020 nM | 12000 nM | 26000 nM | 1030 nM | 26400 nM | 21000 nM | 560 nM | C/C=C1\NC(=O)C2=NC(=NC2)CNC(=O)C[C@@H](/C=C/CCSC(=O)CCCCCCC)OC(=O)[C@H](C(C)C)NC1=O [Compound 2-5] |
| < 100 nM | no activity | 900 nM | 5000 nM | 50 nM | 4100 nM | 200 nM | 500 nM | 100 nM | 2060 nM | 1300 nM | 2010 nM | C/C=C1\NC(=O)c2coc(n2)CNC(=O)C[C@@H](/C=C/CCSC(=O)CCCCCCC)OC(=O)[C@H](C(C)C)NC1=O [Compound 2-1] |

| Structure (SMILES) | IC50 (HDAC1) | IC50 HDAC7 (HDAC7) | GI50 [1] | GI50 [2] | GI50 [3] | GI50 [4] | GI50 [5] | GI50 [6] | GI50 [7] | GI50 (PANC-1) | GI50 [8] | GI50 (Incap) |
| --- | --- | --- | --- | --- | --- | --- | --- | --- | --- | --- | --- | --- |
| C/C=C1\NC(=O)c2csc(n2)CNC(=O)C[C@@H](/C=C/CCSC(=O)CCN)OC(=O)[C@H](C(C)C)NC1=O [Compound 6-6] | < 1000 nM | no activity | 1 nM | 65 nM | 300 nM | 4160 nM | 860 nM | 952 nM | 56400 nM | 1650 nM | 1290 nM | 650 nM |
